Each structure is given as a SMILES string. Several values for one entry are separate records, joined by “and”; a condition that tells them apart may be missing. Equal entries are not always repeated. Entries after “also recorded” stand apart in the source; their conditions may differ. Where two headings read alike, the source gives them in different places.

The values that follow come from paper PMC12475274, “Harnessing indole scaffolds to identify small-molecule IRE1α inhibitors modulating XBP1 mRNA splicing” (Nature Communications, 2025).

Assay [1] concerns the target T1, phosphorylated IRE1α (p-IRE1α) (Homo sapiens, UniProt O75460).
T1 construct: Human IRE1α kinase and RNase domain (residues 547–977) was subcloned into pLIB plasmid; His tag (with TEV cleavage site) (N, cleaved yes); made in house; host or cells: Sf9 insect cells, baculovirus (Bac-to-Bac)
The assay is described as follows: FRET-based IRE1α RNase activity assay, phosphorylated IRE1α. It is filed as biochemical. The conditions noted are these: for inhibition at 50 µM: FRET assay at 50 μM, read-out: p-IRE1α inhibition%. Here is the method: (§1) Human IRE1α kinase and RNase domain (residues 547–977) was subcloned into pLIB plasmid with a His tag and TEV cleavage site, and expressed using Bac-to-Bac expression system. The primers used are listed in Supplementary Table S3. The protein purification was performed following established procedures. Briefly, Sf9 cells were infected with baculovirus and incubated at 27 °C 110 rpm for 72 h. The cells were collected by centrifugation at 4000 × g for 15 min and the cell pellet was resuspended in lysis buffer (50 mM HEPES pH 7.5, 300 mM NaCl, 10% glycerol, 1 mM MgCl2, 1 mM TCEP, 5 mM imidazole), then supplemented with 1:10,000 benzonase (Sigma, E1014), 1 tablet/25 mL […]™ Protease Inhibitor Cocktail tablets (Sigma, S8830) and 1 mM PMSF before lysed by sonication at 4 °C. […] The protein elution was incubated with TEV protease to remove His tag at 4 °C overnight. Then the sample was diluted 1:6 in buffer (50 mM HEPES pH 7.5, 1 mM TCEP, 5% glycerol) and loaded onto a 5 mL pre-packaged Q HP anion exchange column (Cytiva, HiTrap Q HP) pre-equilibrated with QA buffer (50 mM HEPES pH 7.5, 50 mM NaCl, 1 mM TCEP, 5% glycerol). The unphosphorylated and phosphorylated protein was separated by eluting the protein with a very shallow gradient with 0-30% buffer QB (50 mM HEPES pH 7.5, 1 M NaCl, 1 mM TCEP, 5% glycerol) over 80 CV. Different peaks were collected separately and verified by LC-MS. The fully phosphorylated fraction was collected and further purified by size exclusion chromatography (Cytiva, HiLoad 16/600 Superdex 200 pg,) with SEC buffer (25 mM HEPES pH 7.5, 250 mM NaCl, 1 mM TCEP, 10% glycerol) and fractioned as monomeric peak. The rest protein fraction from the Q HP anion exchange column was incubated with Lambda protein phosphatase (New England BioLabs, P0753S) overnight at 4 °C, the dephosphorylation was confirmed by LC-MS. The unphosphorylated protein was further purified by size exclusion chromatography with the SEC buffer described above. The purified phosphorylated (p-IRE1α) and dephosphorylated (IRE1α) protein aliquots were stored at −80 °C for future usage.
(§2) The dual-labeled RNA substrate with a FAM at 5’ and the BHQ-1 at 3’ containing the XBP1 sequence (5′FAM-[…]-3′BHQ1) was purchased from Integrated DNA Technologies (IDT). The FRET-based IRE1α RNase activity assay was carried out in reaction buffer containing 20 mM HEPES pH 7.5, 50 mM KOAc, 1 mM MgOAc2, 1 mM DTT, 0.05% v/v TritonX-100, at a total reaction volume of 20 μL in a 384-well black plate (4514, Corning). For unphosphorylated IRE1α (IRE1α), a final concentration of 40 nM IRE1α protein and 100 nM RNA substrate was used. For phosphorylated IRE1 (p-IRE1α), a final concentration of 4 nM p-IRE1α protein and 200 nM RNA substrate was used. The indicated compound and IRE1α protein were incubated for 30 min at room temperature before the substrate was added to the reaction. The plate was then kinetically read over one hour at room temperature using a TECAN Spark plate reader. The measurement was carried out using the fluorescence top reading mode at the excitation wavelength of 485 nm and the emission wavelength of 535 nm with a 10 nm excitation and emission bandwidth. The linear part of the reaction curve was adopted and fitted with sample linear regression to obtain the slope, and the slope was adopted to reflect the reaction rate. The inhibition % was calculated by using the equation: inhibition% = 100 × (slope of DMSO control – slope of the sample)/(slope of DMSO control – slope of blank control), DMSO control: DMSO with protein and RNA substrate; Blank control: DMSO with RNA substrate. The IC50 values were calculated using the concentration-response model in GraphPad Prism 9.

For assay [2], the target named is T2, dephosphorylated IRE1α (547–977) (Homo sapiens, UniProt O75460).
T2 construct: Human IRE1α kinase and RNase domain (residues 547–977) was subcloned into pLIB plasmid; His tag (with TEV cleavage site) (N, cleaved yes); made in house; host or cells: Sf9 insect cells, baculovirus (Bac-to-Bac)
As to the kind of experiment: FRET-based IRE1α RNase activity assay, dephosphorylated IRE1α. It is filed as biochemical. The conditions noted are these: for inhibition at 50 µM: FRET assay at 50 μM, read-out: IRE1α inhibition%. As to the method:
as §1
as §2, with “9. […]” for “9.”

The mark [3] stands for this setting: FRET assay, RNase activity, mean (± SEM), read-out: p-IRE1α IC50.
[4] abbreviates: FRET assay, source data, unit from Fig. 3, read-out: p-IRE1a IC50, individual replicates (n1-n4).
[5] abbreviates: FRET assay, RNase activity, mean (± SEM), read-out: IRE1α IC50.
Setting [6] is: FRET assay, source data, unit from Fig. 3 / sheet Fig. 2b, read-out: IRE1a IC50, individual replicates (n1-n4).
[7] abbreviates: FRET assay, RNase activity, mean (± SEM).
Where [8] appears, read: p-IRE1a, individual replicates (n1-n3), Supplementary Fig. 2b, 2c, read-out: IC50.
Setting [9] is: p-IRE1a, mean, Supplementary Fig. 2b, 2c, read-out: IC50, mean.
Where [10] appears, read: IRE1a, individual replicates (n1-n4), Supplementary Fig. 2b, 2c, read-out: IC50.
Setting [11] is: IRE1a, mean, Supplementary Fig. 2b, 2c, read-out: IC50, mean.

T2 sequence (O75460 547-977): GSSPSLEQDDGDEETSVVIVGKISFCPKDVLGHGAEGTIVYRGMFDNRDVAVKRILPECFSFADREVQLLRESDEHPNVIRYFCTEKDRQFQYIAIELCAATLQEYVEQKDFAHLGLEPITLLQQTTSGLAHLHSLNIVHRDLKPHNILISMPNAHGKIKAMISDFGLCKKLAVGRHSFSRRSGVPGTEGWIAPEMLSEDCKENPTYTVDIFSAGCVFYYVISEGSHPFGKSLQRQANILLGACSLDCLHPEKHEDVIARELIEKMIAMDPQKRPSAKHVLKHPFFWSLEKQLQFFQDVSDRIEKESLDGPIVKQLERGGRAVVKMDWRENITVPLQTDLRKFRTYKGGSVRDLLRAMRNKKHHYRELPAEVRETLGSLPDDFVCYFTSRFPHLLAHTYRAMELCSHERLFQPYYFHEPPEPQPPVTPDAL
T1 sequence (O75460 547-977): as above

Take `COc1ccc2c(c1)c(Cc1ccccc1)c(C)n2C(=O)c1ccc(Cl)cc1` [cms09]: the inhibition at 50 µM in assay [1] (mean (± SEM)) and in assay [2] (mean (± SEM)) was less than 30% each time.

For `CCc1c(C)n(C(=O)c2ccc(Cl)cc2)c2ccc(OC)cc12` [cms01], the inhibition at 50 µM in assay [1] (mean (± SEM)) and in assay [2] (mean (± SEM)) was less than 30% throughout.

`COc1ccc2c(c1)c(CCC(=O)O)c(C)n2C(=O)C1CCOCC1` [IA81]: the IC50 is 5610 nM and 5600 nM in assay [1] (setting [3]); 5640 nM and 7330 nM and 3850 nM in assay [1] (setting [4]); 2040 nM in assay [2] (setting [5]); 1900 nM and 2230 nM and 1980 nM in assay [2] (setting [6]).

Turning to `COc1ccc2c(c1)c(CC(=O)OCC(=O)O)c(C)n2C(=O)c1ccc(Cl)cc1` [cms03], the inhibition at 50 µM in assay [1] (mean (± SEM)) and in assay [2] (mean (± SEM)) was less than 30% each time.

With `Cc1c(CCC(=O)O)c2cc(-c3ccc(C(F)(F)F)cc3)ccc2n1C(=O)c1ccccc1` [IA145], the IC50 in assay [1] (setting [3]) was 43200 nM; in assay [1] (setting [4]), 40700 nM and 46900 nM and 42100 nM; in assay [2] (setting [5]), 13400 nM; in assay [2] (setting [6]), 14100 nM and 14200 nM and 11900 nM.

For `Cc1ccc2c(NS(=O)(=O)c3ccccc3Cl)cccc2c1Oc1ncccc1-c1ccnc(N[C@H]2CCCNC2)n1` [AMG18], the “inhibition(%)” value in assay [1] (p-IRE1a, 5.55556 μM) is 100.91% and 100.40% and 100.53% and 99.85%; in assay [1] (p-IRE1a, 16.6667 μM), 99.21% and 99.54% and 99.79% and 99.45%; in assay [1] (p-IRE1a, 50 μM) it was 99.53% and 98.55% and 99.75% and 99.47%; in assay [2] (IRE1a, 5.55556 μM) it was 93.95% and 92.37% and 91.58% and 94.22%; in assay [2] (IRE1a, 16.6667 μM) it was 92.87% and 92.05% and 91.66% and 92.11%; in assay [2] (IRE1a, 50 μM) it was 89.29% and 89.80% and 92.49% and 93.01%.

For the molecule `Cc1c(CCC(=O)O)c2cc(-c3ccoc3)ccc2n1C(=O)c1ccccc1` [IA138], the IC50 in assay [1] (setting [3]) was determined as 2030 nM; in assay [2] (setting [5]), 1270 nM.

For the molecule `COc1ccc2c(c1)c(CCC(=O)O)c(C)n2C(=O)C12CCC(C)(C(=O)O1)C2(C)C` (centres unmarked) [IA92], the “p-IRE1α IC50” value in assay [1] (setting [7]) is “IC₅₀ not reached”. Further, the IC50 in assay [1] (setting [3]) and in assay [2] (setting [5]) was greater than 20000 nM each time. Besides, the “IRE1α IC50” value in assay [2] (setting [7]) is listed as “IC₅₀ not reached”.

As to `Cc1c(CCC(=O)O)c2cc(-c3ccc(O)cc3)ccc2n1C(=O)c1ccccc1` [IA163], the “p-IRE1α IC50” value in assay [1] (setting [7]) is given as “IC₅₀ not reached”. Further, the IC50 was greater than 20000 nM in assay [1] (setting [3]); 7410 nM in assay [2] (setting [5]); 6380 nM and 8450 nM in assay [2] (setting [6]).

On to `COc1ccc2c(c1)c(CC(=O)N1CCOCC1)c(C)n2C(=O)c1ccc(Cl)cc1` [cms11], for which the inhibition at 50 µM in assay [1] (mean (± SEM)) and in assay [2] (mean (± SEM)) was less than 30% throughout.

With `COc1ccc2c(c1)c(CCC(=O)O)c(C)n2C(=O)c1ccc(N(C)C)cc1` [IA70], the IC50 in assay [1] (setting [3]) was 730 nM; in assay [1] (setting [4]) it was 505 nM and 1390 nM and 290 nM; in assay [2] (setting [5]), 320 nM; in assay [2] (setting [6]) it was 473 nM and 234 nM and 244 nM.

As to `Cc1c(CCC(=O)O)c2cc(Br)ccc2n1Cc1ccccc1` [IA164], the “effect on p-IRE1α RNase activity in the FRET assay” value in assay [1] is “did not show activity”. Further, the “inhibition(%)” value in assay [1] (p-IRE1a, 0.000847 μM) was -3.310% and -10.444% and -6.973% and -11.312%; in assay [1] (p-IRE1a, 0.00254 μM), -11.263% and -6.154% and -5.913% and -3.985%; in assay [1] (p-IRE1a, 0.007621 μM) it was -3.888% and -1.575% and -3.262% and -6.925%; in assay [1] (p-IRE1a, 0.022862 μM), -9.528% and -12.854% and -7.504% and -7.552%; in assay [1] (p-IRE1a, 0.205761 μM), -14.011% and -13.481% and -9.046% and -6.299%; in assay [1] (p-IRE1a, 0.617284 μM), -12.951% and -9.625% and -7.070% and -4.226%. Moreover, the “inhibition(%)” value in assay [1] (p-IRE1a, 1.85185 μM) is -7.504% and -4.708% and -6.877% and -5.527%; in assay [1] (p-IRE1a, 5.55556 μM), -7.793% and -8.660% and -17.192% and -15.216%; in assay [2] (IRE1a, 5.55556 μM) it was 18.332% and 22.563% and 19.929%. Also, the “effect on IRE1α RNase activity in the FRET assay” value in assay [2] is “did not show activity; also recorded: complete loss of activity”. For the same molecule, the inhibition at 5.55556 µM in assay [2] (IRE1a, 5.55556 μM) amounted to 11.3%.

In the case of `Cc1c(CCC(=O)O)c2cc(F)ccc2n1C(=O)c1cccc(C#N)c1` [IA47], the IC50 is 5260 nM and 7800 nM and 3640 nM in assay [1] (setting [8]); 5570 nM in assay [1] (setting [9]); 4700 nM and 983 nM and 3620 nM and 1970 nM in assay [2] (setting [10]); 2820 nM in assay [2] (setting [11]).

`Cc1c(CCC(=O)O)c2ccccc2n1C(=O)c1ccccc1` [IA104]: the concentration for half-maximal inhibition (IC50) in assay [1] (setting [3]) is 1050 nM; in assay [1] (setting [4]) it was 446 nM and 627 nM and 2070 nM; in assay [2] (setting [5]) it was 340 nM; in assay [2] (setting [6]), 173 nM and 171 nM and 675 nM.

For the molecule `COc1ccc2c(c1)c(CCC(=O)O)c(C)n2C(=O)c1ccncc1` [IA93], the IC50 in assay [1] (setting [3]) was 340 nM; in assay [1] (setting [4]), 198 nM and 428 nM and 403 nM; in assay [2] (setting [5]), 180 nM; in assay [2] (setting [6]), 141 nM and 211 nM and 201 nM.

Turning to `Cc1c(CCC(=O)O)c2cc(Cl)ccc2n1C(=O)c1cccs1` [IA60], the IC50 in assay [1] (setting [8]) is 244 nM and 461 nM and 90.7 nM; in assay [1] (setting [9]), 270 nM; in assay [2] (setting [10]), 117 nM and 90.9 nM and 105 nM; in assay [2] (setting [11]), 100 nM.

As to `COc1ccc2c(c1)c(CCC(=O)O)c(C)n2C(=O)c1ccc(F)cc1` [IA66], the IC50 in assay [1] (setting [3]) is 200 nM; in assay [1] (setting [4]), 124 nM and 115 nM and 353 nM; in assay [2] (setting [5]), 140 nM; in assay [2] (setting [6]), 213 nM and 125 nM and 82.7 nM.
